Measured values from ChEMBL document CHEMBL1201862, “PubChem BioAssay data set” (2004).
Values belong to the molecule of their own block, whether it stands above or below them. Calls of active or inactive are those of the source.

Tests used:
Estrogen receptor = molecular target: T1, Estrogen receptor (Homo sapiens, UniProt P03372);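 also: potency for inhibiting coactivator peptide recruitment to the receptor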
T1 sequence (P03372 whole entry): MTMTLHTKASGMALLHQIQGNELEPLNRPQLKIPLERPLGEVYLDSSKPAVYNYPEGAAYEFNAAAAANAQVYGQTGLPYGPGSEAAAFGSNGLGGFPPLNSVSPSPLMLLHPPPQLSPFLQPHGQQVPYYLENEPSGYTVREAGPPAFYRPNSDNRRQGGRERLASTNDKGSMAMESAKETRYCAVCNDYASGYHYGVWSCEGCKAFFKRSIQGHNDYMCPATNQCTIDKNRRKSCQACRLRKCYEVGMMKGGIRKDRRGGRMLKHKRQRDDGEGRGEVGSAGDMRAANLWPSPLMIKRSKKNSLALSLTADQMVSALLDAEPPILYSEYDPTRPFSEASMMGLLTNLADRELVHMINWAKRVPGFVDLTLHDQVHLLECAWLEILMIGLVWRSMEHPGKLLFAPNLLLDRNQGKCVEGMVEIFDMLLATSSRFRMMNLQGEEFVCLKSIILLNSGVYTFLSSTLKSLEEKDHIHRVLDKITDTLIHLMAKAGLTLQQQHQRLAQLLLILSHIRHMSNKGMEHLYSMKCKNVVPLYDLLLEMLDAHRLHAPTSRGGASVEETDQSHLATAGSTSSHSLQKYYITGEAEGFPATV

Leucine aminopeptidase = molecular target: T2, Leucine aminopeptidase (Plasmodium falciparum 3D7, UniProt Q8IL11); assay: P. falciparum M17LAP inhibitors, primary screen, biochemical, fluorogenic H-Leu-NHMec substrate, 1536-well (AID 1619); assay type: functional
T2 sequence (Q8IL11 whole entry): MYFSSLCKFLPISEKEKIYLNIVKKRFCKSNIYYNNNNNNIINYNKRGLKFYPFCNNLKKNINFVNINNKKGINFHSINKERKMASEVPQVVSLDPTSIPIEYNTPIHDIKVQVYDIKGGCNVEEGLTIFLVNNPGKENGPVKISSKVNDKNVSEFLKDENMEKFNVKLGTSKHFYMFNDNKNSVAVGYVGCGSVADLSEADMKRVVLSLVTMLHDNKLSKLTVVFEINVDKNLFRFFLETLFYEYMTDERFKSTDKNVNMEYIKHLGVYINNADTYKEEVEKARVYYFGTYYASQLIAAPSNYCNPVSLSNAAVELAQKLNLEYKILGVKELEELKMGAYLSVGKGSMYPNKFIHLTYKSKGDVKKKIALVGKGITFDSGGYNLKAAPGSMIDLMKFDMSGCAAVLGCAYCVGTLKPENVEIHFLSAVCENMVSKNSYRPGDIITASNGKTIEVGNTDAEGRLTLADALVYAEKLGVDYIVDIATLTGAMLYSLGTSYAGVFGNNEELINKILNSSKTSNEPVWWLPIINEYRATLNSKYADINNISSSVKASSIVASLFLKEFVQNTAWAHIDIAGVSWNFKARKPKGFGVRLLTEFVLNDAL

[1] = molecular target: T3, Alkaline phosphatase, tissue-nonspecific isozyme (Homo sapiens, UniProt P05186); assay: potency against alkaline phosphatase TNAP – biochemical, luminescent, dose response, SAR follow-up (AID 1056)
T3 sequence (P05186 whole entry): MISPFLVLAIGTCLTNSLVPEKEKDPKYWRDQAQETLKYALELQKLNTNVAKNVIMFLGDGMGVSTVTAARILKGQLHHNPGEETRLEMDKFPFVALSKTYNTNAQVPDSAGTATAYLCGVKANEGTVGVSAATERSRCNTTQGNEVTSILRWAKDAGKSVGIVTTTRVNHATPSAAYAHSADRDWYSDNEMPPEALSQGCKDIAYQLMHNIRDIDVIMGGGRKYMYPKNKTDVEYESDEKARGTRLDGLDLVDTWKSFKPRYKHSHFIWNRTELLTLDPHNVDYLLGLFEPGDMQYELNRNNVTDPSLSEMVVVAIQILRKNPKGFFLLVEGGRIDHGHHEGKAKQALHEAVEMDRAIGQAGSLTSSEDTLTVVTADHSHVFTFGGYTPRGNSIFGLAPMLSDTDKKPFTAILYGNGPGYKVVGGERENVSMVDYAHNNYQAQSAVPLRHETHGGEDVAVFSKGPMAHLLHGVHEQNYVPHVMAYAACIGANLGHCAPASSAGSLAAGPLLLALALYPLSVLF

[2] = molecular target: Glyceraldehyde-3-phosphate dehydrogenase (Homo sapiens, UniProt P04406)
Chain of Glyceraldehyde-3-phosphate dehydrogenase (P04406 whole entry): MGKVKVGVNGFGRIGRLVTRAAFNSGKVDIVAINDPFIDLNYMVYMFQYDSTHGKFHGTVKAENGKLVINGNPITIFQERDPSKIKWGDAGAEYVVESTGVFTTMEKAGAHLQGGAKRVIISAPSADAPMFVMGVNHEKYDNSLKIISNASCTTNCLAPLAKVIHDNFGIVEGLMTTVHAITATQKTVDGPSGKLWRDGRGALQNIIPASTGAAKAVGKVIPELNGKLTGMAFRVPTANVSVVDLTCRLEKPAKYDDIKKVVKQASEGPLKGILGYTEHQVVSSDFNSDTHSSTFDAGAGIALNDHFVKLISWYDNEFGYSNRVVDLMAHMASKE

[3] = molecular target: T4, Short transient receptor potential channel 4 (Mus musculus, UniProt Q9QUQ5); assay: block of DAMGO-driven TRPC4 calcium entry – cell-based, HEK293 TRPC4/mu-opioid, Fluo-4 calcium, dose response (AID 434942); assay type: functional;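 also: potency of inhibitors blocking the TRPC4 calcium response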
T4 sequence (Q9QUQ5 whole entry): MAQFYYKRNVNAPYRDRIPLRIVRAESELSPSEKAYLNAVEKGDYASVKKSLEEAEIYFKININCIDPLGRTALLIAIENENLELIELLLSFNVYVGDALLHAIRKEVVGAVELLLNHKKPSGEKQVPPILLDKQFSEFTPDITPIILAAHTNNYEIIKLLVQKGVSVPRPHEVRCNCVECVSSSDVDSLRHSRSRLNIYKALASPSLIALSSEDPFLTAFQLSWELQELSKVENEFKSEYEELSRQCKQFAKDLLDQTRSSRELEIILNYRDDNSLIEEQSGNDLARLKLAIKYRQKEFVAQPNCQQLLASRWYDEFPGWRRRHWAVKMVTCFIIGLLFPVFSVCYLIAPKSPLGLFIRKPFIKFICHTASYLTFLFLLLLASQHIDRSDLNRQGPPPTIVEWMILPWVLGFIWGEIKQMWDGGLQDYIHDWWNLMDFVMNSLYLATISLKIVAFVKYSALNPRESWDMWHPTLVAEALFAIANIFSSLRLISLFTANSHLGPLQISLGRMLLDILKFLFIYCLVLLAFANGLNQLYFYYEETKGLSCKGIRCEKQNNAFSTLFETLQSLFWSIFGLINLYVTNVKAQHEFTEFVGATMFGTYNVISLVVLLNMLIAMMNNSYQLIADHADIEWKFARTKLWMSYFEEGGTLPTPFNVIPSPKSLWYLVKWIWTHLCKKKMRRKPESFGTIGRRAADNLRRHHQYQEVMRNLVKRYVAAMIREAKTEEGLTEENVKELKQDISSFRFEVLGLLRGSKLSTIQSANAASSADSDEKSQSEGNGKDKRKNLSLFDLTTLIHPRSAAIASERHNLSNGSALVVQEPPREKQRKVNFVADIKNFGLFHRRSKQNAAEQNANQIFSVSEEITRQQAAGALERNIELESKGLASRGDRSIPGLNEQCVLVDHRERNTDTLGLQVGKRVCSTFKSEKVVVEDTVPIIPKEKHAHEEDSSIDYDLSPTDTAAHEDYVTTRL

[4] = molecular target: T5, Polyadenylate-binding protein 1 (Homo sapiens, UniProt P11940); assay: MLLE binding blockers, Cy5 peptide tracer – biochemical, fluorescence polarization, Cy5-PAM2 peptide, secondary, miRNA deadenylation inhibitor project, dose response (AID 602260); assay type: functional; details: read-out: IC50_Mean
T5 sequence (P11940 whole entry, the tested form may be a part): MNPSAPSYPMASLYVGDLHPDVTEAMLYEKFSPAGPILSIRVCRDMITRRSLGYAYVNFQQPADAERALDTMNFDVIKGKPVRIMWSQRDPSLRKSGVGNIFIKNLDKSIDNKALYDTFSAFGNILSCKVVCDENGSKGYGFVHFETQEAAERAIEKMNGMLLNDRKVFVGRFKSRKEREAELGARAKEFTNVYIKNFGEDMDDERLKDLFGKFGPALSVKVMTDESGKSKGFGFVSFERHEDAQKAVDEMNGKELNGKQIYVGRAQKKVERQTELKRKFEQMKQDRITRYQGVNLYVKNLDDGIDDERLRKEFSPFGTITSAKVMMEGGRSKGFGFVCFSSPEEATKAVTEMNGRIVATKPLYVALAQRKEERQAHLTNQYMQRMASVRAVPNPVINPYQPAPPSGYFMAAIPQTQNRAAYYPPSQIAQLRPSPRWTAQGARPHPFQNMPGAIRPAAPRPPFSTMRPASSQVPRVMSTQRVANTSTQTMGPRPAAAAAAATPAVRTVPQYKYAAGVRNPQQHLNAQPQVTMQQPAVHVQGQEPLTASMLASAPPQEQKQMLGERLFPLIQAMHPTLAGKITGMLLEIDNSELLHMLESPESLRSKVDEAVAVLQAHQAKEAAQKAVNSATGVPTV

[5] = molecular target: T5, Polyadenylate-binding protein 1; assay: MLLE domain peptide-binding blockers, IC50 – biochemical, fluorescence polarization, FITC-PAM2 peptide, dose response (AID 602259); assay type: functional; details: read-out: IC50_Mean
[6] = blockers of HIV-1 envelope-mediated cell-cell fusion – cherry-pick, dose response (AID 652057); assay type: functional, cell-based
[7] = HIV-1 AD8 envelope cell-cell fusion blockers – cherry-pick, dose response (AID 652062); assay type: functional, cell-based;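 also: luciferase signal from cell-cell fusion driven by HIV-1 clade B AD8 Env; potency is for inhibitors of fusion seen as a drop in luminescence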
[8] = blockers of HIV-1 ZM109 envelope-driven cell-cell fusion – HeLa effector, CEM target cells, luciferase, cherry-pick, dose response (AID 652058); assay type: functional, cell-based;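 also: luciferase signal from HIV-1 Env mediated cell-cell fusion of effector and target cells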
Paired box protein Pax-8 = Paired box protein Pax-8 (Homo sapiens, UniProt Q06710); assay: PAX8 transcriptional activity inhibition in RMG-I – RMG-I cells, luciferase, cherry-pick, dose response (AID 687027); assay type: functional, cell-based;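 also: luciferase reporter driven by Pax8 target thyroperoxidase promoter measured by SteadyGlo luminescence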
Chain of Paired box protein Pax-8 (Q06710 whole entry): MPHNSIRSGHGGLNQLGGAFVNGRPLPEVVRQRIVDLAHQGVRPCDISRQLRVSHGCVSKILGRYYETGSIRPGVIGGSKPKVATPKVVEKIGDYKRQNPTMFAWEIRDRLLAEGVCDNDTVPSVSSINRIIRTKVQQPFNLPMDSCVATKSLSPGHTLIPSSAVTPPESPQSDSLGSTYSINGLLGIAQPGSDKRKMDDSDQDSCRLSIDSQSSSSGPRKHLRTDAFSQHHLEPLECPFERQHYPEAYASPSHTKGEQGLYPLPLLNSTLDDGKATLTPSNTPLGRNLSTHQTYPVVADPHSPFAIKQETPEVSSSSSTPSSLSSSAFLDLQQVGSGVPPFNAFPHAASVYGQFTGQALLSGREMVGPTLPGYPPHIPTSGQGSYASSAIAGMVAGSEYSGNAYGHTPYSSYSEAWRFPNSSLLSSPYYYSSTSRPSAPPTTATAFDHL

[9] = Trypanosoma cruzi growth suppression in host cells – NIH3T3 host cells, beta-gal luminescence, confirmation (AID 2044); assay type: functional, cell-based;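 also: intracellular parasites grown in NIH/3T3 mouse fibroblasts as host cells; luminescent beta-galactosidase reporter signal from transgenic T. cruzi replicating inside host cells; inhibitors lower the luminescence signal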
[10] = NIH3T3 cell viability loss – ATP luminescence, mouse fibroblasts, counter-screen, dose response (AID 2010); assay type: functional, cell-based;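 also: cells exposed to compound for about 90 hours before reading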
H9c2 = assay: cells; assay type: functional, cell-based; details: Rattus norvegicus, H9c2, Myocardium;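 also: confirmatory concentration-response retest of ultra-high-throughput screening hits for modulation of myocardial damage; cell death induced by hydrogen peroxide oxidative stress; compound pretreatment for 60 min then peroxide exposure for 2 h; potency is for protecting the cells against peroxide damage rather than for killing them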
[11] = molecular target: T6, Zinc finger protein mex-5 (Caenorhabditis elegans, UniProt Q9XUB2); assay: potency of MEX-5 RNA-binding blockers – biochemical, C. elegans, fluorescence polarization, dose response (AID 1960)
T6 sequence (Q9XUB2 whole entry): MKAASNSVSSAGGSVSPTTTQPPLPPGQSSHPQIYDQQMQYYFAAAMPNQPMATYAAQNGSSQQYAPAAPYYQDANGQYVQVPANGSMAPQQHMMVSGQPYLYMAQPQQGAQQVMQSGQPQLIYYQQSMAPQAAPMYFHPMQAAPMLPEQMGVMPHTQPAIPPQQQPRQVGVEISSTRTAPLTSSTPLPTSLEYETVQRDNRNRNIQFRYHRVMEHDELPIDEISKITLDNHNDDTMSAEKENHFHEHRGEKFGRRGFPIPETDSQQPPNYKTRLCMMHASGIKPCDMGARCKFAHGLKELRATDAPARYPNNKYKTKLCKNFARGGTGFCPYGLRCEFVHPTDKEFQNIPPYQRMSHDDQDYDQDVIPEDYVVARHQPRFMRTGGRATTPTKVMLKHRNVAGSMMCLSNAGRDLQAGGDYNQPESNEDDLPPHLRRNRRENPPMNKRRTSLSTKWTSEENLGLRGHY

[12] = molecular target: T7, RNA-binding protein pos-1 (Caenorhabditis elegans, UniProt G5EF15); assay: disruptors of C. elegans POS-1 RNA interaction – biochemical, fluorescence polarization, dose response (AID 1964);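 also: purified POS-1 fused to maltose binding protein made in E. coli; potency of compounds blocking POS-1 binding to fluorescent RNA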
T7 sequence (G5EF15 whole entry): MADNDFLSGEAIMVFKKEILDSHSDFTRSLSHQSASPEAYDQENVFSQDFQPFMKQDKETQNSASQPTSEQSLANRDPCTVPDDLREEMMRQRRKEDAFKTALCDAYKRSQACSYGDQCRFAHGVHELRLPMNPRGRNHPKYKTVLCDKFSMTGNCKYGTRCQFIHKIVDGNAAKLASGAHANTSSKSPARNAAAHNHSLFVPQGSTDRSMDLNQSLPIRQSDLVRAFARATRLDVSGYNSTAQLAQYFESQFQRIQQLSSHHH

IC50 [4]: > 66 µM (inactive)
IC50 (Estrogen receptor): 23.4 µM (active)
IC50 [5]: > 66 µM (inactive)
SMILES: O=C(O)c1cc(-c2ccco2)nc2ccccc12

EC50 [3]: 0.944 µM (active)
SMILES: COc1cccc(C(CNC(=O)C(c2ccccc2)c2ccccc2)N(C)C)c1 (stereo not drawn)

IC50 (Leucine aminopeptidase): 76.8 µM (active)
SMILES: CCSc1nnc(NC(=O)C2CCCCC2C(=O)OCC(F)(F)C(F)F)s1 (stereo not drawn)

IC50 (Estrogen receptor): 15.4 µM (active)
SMILES: COc1ccc2nc3oc(C(=O)N4CCN(c5cccc(C(F)(F)F)c5)CC4)cc3cc2c1

IC50 [2]: > 100 µM (not active)
SMILES: Cc1ccc(NC2=NC(=O)/C(=C/c3ccc(O)c([N+](=O)[O-])c3)S2)cc1Cl

IC50 (Estrogen receptor): 37.5 µM (not active)
SMILES: Cc1ccc(S(=O)(=O)Cc2ccc(C(=O)NCc3ccc4c(c3)OCO4)o2)cc1

IC50 (Leucine aminopeptidase): 8.08 µM (active)
SMILES: CCc1c(O)nc(SCC(=O)Nc2ccc3c(c2)CCC3)nc1O

More lines, now with the values behind:

SMILES: Cc1nc2sccn2c1-c1nc(-c2cc3ccccc3o2)cs1
IC50 (Estrogen receptor): 10.7 µM (active)

SMILES: Cc1nnc(SCC(=O)Nc2cccc(C(F)(F)F)c2)[nH]c1=O
IC50 (Leucine aminopeptidase): 15.1 µM (active)

SMILES: COC(=O)c1cc(-c2ccc(C)cc2C)n[nH]1
IC50 [1]: 1.62 µM (active)
IC50 [2]: > 100 µM (not active)

SMILES: CCCn1c(NCc2ccc(C)o2)nc2ccccc21
EC50 [3]: 5.31 µM (active)

SMILES: CCOC(=O)CC(=O)CSc1nc(O)c2sc(=S)n(-c3ccccc3)c2n1
IC50 (Leucine aminopeptidase): 40.6 µM (active)

SMILES: CC(=O)Nc1n[nH]c(SCc2ccc(Br)cc2)n1
IC50 [1]: > 100 µM (inactive)
IC50 [2]: > 100 µM (not active)

SMILES: C[C@H](CO)N1C[C@H](C)[C@H](CN(C)Cc2ccc(Cl)c(Cl)c2)Oc2c(NS(=O)(=O)c3ccc(Cl)cc3)cccc2C1=O
AC50 [6]: 26.9 µM (active)
AC50 [7]: 42.9 µM (active)
AC50 [8]: 20.1 µM (active)
AC50 (Paired box protein Pax-8): 13.7 µM (active)

SMILES: COc1ccc(Br)cc1S(=O)(=O)Nc1ccc2ccccc2c1
IC50 [1]: > 10 µM (inactive)
IC50 [2]: > 10 µM (inconclusive)

SMILES: CCCCn1c(NC(=O)c2ccccc2)nc2ccccc21
EC50 [9]: 2.15 µM (active)
EC50 [3]: 5.96 µM (active)
EC50 [10]: 11.3 µM (active)
IC50 (H9c2): 9.17 µM (active)

SMILES: c1ccc(-c2ccccc2OCCOCCN2CCCCC2)cc1
EC50 [3]: 2.11 µM (active)

SMILES: Cc1ccc(NC(=O)c2sc3nc4c(c(-c5ccco5)c3c2N)CCC4)cc1
EC50 [11]: 2.85 µM (active)
IC50 (Estrogen receptor): > 50 µM (not active)
EC50 [12]: 2.13 µM (active)

SMILES: O=c1c2ccccc2nc(SCc2ccccc2)n1CC1CCCO1 (stereo not drawn)
EC50 [3]: 3.35 µM (active)

SMILES: COc1ccc(Cc2nnc(N3C(=O)[C@H]4CC=CC[C@H]4C3=O)[nH]2)cc1
IC50 [1]: 96 µM (active)
IC50 [2]: > 100 µM (not active)

SMILES: Cc1ccc(/C=c2/sc3nnc(-c4ccccc4Cl)n3c2=O)o1
IC50 (Leucine aminopeptidase): 28.7 µM (active)

SMILES: COc1ccc(C(=O)NCCc2ccc(Cl)cc2)cc1S(=O)(=O)N1CCCCC1C (stereo not drawn)
AC50 [6]: 21.7 µM (active)
AC50 [7]: 11.4 µM (active)
AC50 [8]: 67.5 µM (active)
